Reference: patent publication US10188727B2, “Bifunctional molecules with antibody-recruiting and entry inhibitory activity against the human immunodeficiency virus” (YALE UNIVERSITY, priority 2009, dated 2019)
Entries after “also recorded” stand apart in the source; their conditions may differ. Like-named read-outs stand apart in the source and are kept apart here.

Assays:
CD4-gp120 interaction = CD4-gp120 interaction (Human immunodeficiency virus type 1, UniProt Q75760); experiment: CD4 inhibition ELISA (competition ELISA, sCD4 binding to immobilized gp120); parameters: species or system HIV-1
Description: CD4 Inhibition ELISA (FIG. 2A)
This procedure was adapted from the protocol reported by Lin, et al.^14. 96 well plates (Nunc; Immuno) were coated overnight at 4° C. with soluble recombinant HIV-1 gp120JRFL (Immune Technology; Yonkers, N.Y.) at 1 μg/ml in 0.05M Buffer A (carbonate/bicarbonate, pH=9.6, Aldrich). Plates were washed with PBS (Aldrich, 1×100 μL) and then blocked with 3% nonfat milk in phosphate buffered saline solution (PBS, Aldrich) for 1 hr at room temperature. After washing with Buffer B (50 mM Tris HCl, 100 mM NaCl, 0.05% Tween-20, pH 7.4), varying concentrations of the inhibitor were added simultaneously with recombinant human T-cell CD4 (ImmunoDiagnostics, Inc; Woburn, Mass.) in Buffer C (50 mM Tris HCl, 100 mM NaCl, 1% BSA, pH 7.4) so that the final concentration/well of CD4 is 0.1 μg/mL and plates were incubated for 1 hr at room temperature. Plates were washed with Buffer B (3×100 μL) and then incubated with mouse OKT4 anti-CD4 IgG antibody (Biolegend; San Diego, Calif.) at 0.36 μg/ml in Buffer C at RT for 1 hr. Following washes with Buffer B, plates were incubated with horse radish peroxidase (HRP)-conjugated goat anti-mouse antibody (1:2500; Biolegend; San Diego, Calif.). Bound antibody was detected with 3,3,5,5-tetramethylbenzidine (TMB, Pierce Protein Research Products), the chromogenic substrate for HPR, and absorbance was read at 450 nm. […]

wild-type HIV IIIB = experiment: MT-2 cell assay, antiviral activity (MTT); format: cell-based, HIV-1
Description: (§1) Antiviral activity and cellular toxicity were determined using the MTT colorimetric method^7,8. MT-2 cell^9,10 at a concentration of 1×10^5 cells per milliliter were infected with wild-type HIV IIIB^11,12,13 at a multiplicity of infection (MOI) of 0.1. Infected and mock-infected cells were incubated in growth medium (RPMI 1640, 10% δFBS, kanamycin) for 5 days with varying concentrations of each compound being tested in triplicate in a 96-well plate. MIT (thiazolyl blue tetrazolium bromide), a cell-permeable tetrazolium dye was then added to each well. Active mitochondria reduce the yellow tetrazolium salt to a blue formazan precipitate. After 5 h, stop solution (86% isopropanol, 4% NP-40, 10% H2O, and 0.3% concentrated HCl) was added to lyse the cells and stop the reaction. The plates were gently shaken gently overnight on a horizontal rotator, and quantitated the following morning. Cell viability was measured spectrophotometrically by quantifying the amount of purple precipitate via determining the absorbance at 595 nm using a Multiskan Plus from Labsystems (Helsinki, Finland) microplate reader. The average of these triplicate samples was then plotted versus inhibitor concentration to generate dose-response curves. The 50% effective concentration (EC50) and 50% cytotoxic concentration (CC50) of the compounds were defined as the concentrations required to inhibit viral replication and to reduce the number of viable cells by 50%, respectively. Positive controls were done during each set of experiments using d4T and the appropriate parent NNRTI (HI-236 or TMC-derivative). Data were quantitated using KaleidaGraph (Synergy Software). ^7. Mosmann, T. J. Immunol Methods 1983, 65, 55-63.^8. Pannecouque, C.; Daelemans, D.; Clercq, E. D. Nat Protoc. 2008, 3, 427-434.^9. Haertle, T.; Carrera, C. J.; Wasson, D. B.; Sowers, L. C.; Richman, D. D.; Carson, D. A. J. Biol Chem. 1988, 263, 5870-5875.^10. Harada, S.; Koyanagi, Y.; Yamamoto, N. Science 1985, 229, 563-566.^11. Popovic, M.; Read-Connole, E.; Gallo, R. C. […] Popovic, M.; Samgadharan, M. G.; Read, E.; Gallo, R. C. […]

MT-2 cells = experiment: MT-2 cell assay, cellular toxicity in mock-infected cells (MTT); format: cell-based, human; settings: control MT-2 cultures lacking HIV virus
Description: as §1, with “The 50% effective concentration (EC50) and 50% cytotoxic concentration (CC50) of the compounds were defined as the concentrations required to inhibit viral replication and to reduce the number of viable cells by 50%, respectively. Positive controls were done during each set of experiments using d4T and the appropriate parent NNRTI (HI-236 or TMC-derivative).” left out, “Mosmann, T. J. Immunol Methods 1983, 65, 55-63.^8. Pannecouque, C.; Daelemans, D.; Clercq, E. D. Nat Protoc. 2008, 3, 427-434.^9. Haertle, T.; Carrera, C. J.; Wasson, D. B.; Sowers, L. C.; Richman, D. D.; Carson, D. A. J. Biol Chem. 1988, 263, 5870-5875.^10. Harada, S.; Koyanagi, Y.; Yamamoto, N. Science 1985, 229, 563-566.^11.” left out

CHO-gp120 cells [1] = experiment: CDC assay (complement-dependent cytotoxicity) on Env-expressing cells; format: cell-based, Chinese hamster
Description: CDC Assay (FIG. 4 and FIG. 8)
CHO-WT or CHO-K1 cells taken from a T-75 flask (˜80% confluent), were washed once with DPBS (Gibco, 5 mL), and cells were then detached with 2.5 mM EDTA/0.5 mM EGTA in DPBS. Resulting cell suspension was centrifuged at 900 rpm for five minutes, then pellet was aspirated and re-suspended at a density of 9.00×10^5 cells/mL in Buffer E. Subsequently, cell suspension was added to prepared dilutions of ARM-H (4) (or control molecule) in Buffer E. Resulting cell mixtures were plated in triplicate (50 μL, 22,500 cells/well)□ onto 96 well plates (CoStar, black sides/clear bottom), covered with tin foil and incubated at 4° C. for 1.5 hours. To each well, 50 μL of 20% rabbit complement serum (v/v, Aldrich) and 100 μg/mL rat anti-DNP IgG (Zymed; Carlsbad, Calif.) in Buffer E was added, resulting in a 10% (v/v) complement and 50 μg/mL antibody concentration per well. Negative control wells containing only ARM-H dilutions were prepared in addition to maximum cell death controls (0.15% H2O2). Covered plate was incubated for an additional hour at 4° C. and then for 4 hours at room temperature. All control experiments were conducted following the same protocol. Cell viability was determined using the luciferase-based CellTiter-Glo Luminescent Cell Viability Assay (Promega). Complement mediated cell death and cytotoxicity was calculated as: [1−((sample-max killing)/(untreated-max killing))]×100 and plotted using GraphPad Prism. Raw data was subjected to Dixon Q-test analysis at the 90% confidence interval and statistical outliers removed accordingly^16,17. ^16. Dean, R. B.; Dixon, W. J. Anal. Chem. 1951, 23, 636-638.^17. Efstathiou, C. E. Talanta 2006, 69, 1068-1071.

CHO-gp120 cells [2] = experiment: Immunofluorescence microscopy, recruitment of labeled anti-DNP antibodies; format: cell-based, Chinese hamster; settings: ARM-H plus competing ligand
Description: Immunofluorescence (FIG. 3)
Confluent CHO-WT (env expressing) or CHO-K1 (non-env expressing) cells were incubated on cover slips (15CIR-1D, Fisher) over 2 nights at 37° C. in 5% CO2. Cover slips were washed with DPBS (1 mL, Gibco) and then cells fixed with 4% parafomaldehyde in DPBS at 4° C. for 10 minutes. […] Cover slips then washed with Buffer E (2×70 μl) and incubated with AlexaFluor488 rabbit anti-DNP IgG antibodies (Invitrogen) at 15 μg/ml in Buffer E (70 μl) for 1 hr at 4° C. All cover slips were washed prior to mounting onto slides using Gel Mount mounting medium (Biomeda Corp.) with Buffer E and water. Corresponding competition experiments were performed in the presence of recombinant human T-cell CD4 (ImmunoDiagnostics, Inc; Woburn, Mass.), BMS-378806 (1) and DNP-PEG-alkyne (2). Cells were checked using a Zeiss Axiovert 200M fluorescence microscope equipped with a GFP filter.

CHO-K1 cells = experiment: Flow cytometry detection of DNP labeling; format: cell-based, Chinese hamster; settings: higher concentrations of labeling reagent, data not shown
Description: Flow Cytometry Detection of DNP Labeling (FIG. 9)
CHO-K1 cells taken from a T-75 flask (˜80% confluent), were washed once with DPBS (Gibco, 5 mL), and cells were then detached with 2.5 mM EDTA/0.5 mM EGTA in DPBS. Resulting cell suspension was centrifuged at 900 rpm for five minutes, then pellet was aspirated and re-suspended at a density of 1.40×10^6 cells/mL in F12-K growth medium. Cells were incubated with 2,4-dinitrobenzenesulfonic acid (TCI, 50 mg/mL solution in MeOH) at varying concentrations for 30 min. at room temperature. Cells centrifuged and washed with growth medium (×3) and then aliquoted (0.5 ml) into Eppendorf tubes at a cell density of 1.40×10^6 cells/mL. Cells incubated with AlexaFluor 488 conjugated rabbit anti-DNP IgG (Invitrogen) antibodies (20 μg/mL) for 1 hr at 4° C. Cells were subsequently centrifuged, washed with DPBS (3×0.5 mL), resuspended in 0.5 mL DPBS containing 150 μg of propidium iodide (to monitor cell death) and immediately analyzed for fluorescence using a FACSCalibur flow cytometer (Becton Dickinson) monitoring at least 10,000 events/measurement. Data were analyzed using FlowJo Analysis Software (Tree Star).

## C[C@@H]1CN(C(=O)c2ccccc2)CCN1C(=O)C(=O)c1c[nH]c2nccc(OCCOCCOCCOCCOCCOCCn3cc(COCCOCCOCCOCCNc4ccc([N+](=O)[O-])cc4[N+](=O)[O-])nn3)c12 [ARM-H]
CD4-gp120 interaction
  IC50: ~8.7 µM
wild-type HIV IIIB; Human immunodeficiency virus 1, IIIB, MT2, live HIV-1, human MT-2 T-cell line, read-out: IC50, HIV-1 inhibition in MT-2 cell assay
  IC50: 6.4 µM
MT-2 cells
  cytotoxicity in MT-2 cells: no observable cytotoxicity; also recorded: no non specific cytotoxicity
CHO-gp120 cells [1]; CHO cell lines
  non specific cytotoxicity in CHO cell lines: no non specific cytotoxicity
CHO-gp120 cells [1]; CHO-gp120 cells, absence of anti-DNP antibody and complement-preserved serum
  cell death without antibody and complement: no cell death was observed
CHO-gp120 cells [1]; MT-2 entry inhibition and CDC together
  concentrations at which inhibition of HIV entry and CDC activity were both operative: 6 to 30 µM

## COc1ccnc2[nH]cc(C(=O)C(=O)N3CCN(C(=O)c4ccccc4)C[C@H]3C)c12 [Formula 1, 4-benzoyl-1-(2-(4-methoxy-1H-pyrrolo(2,3-b)pyridin-3-yl)-1,2-dioxoethyl)-2-methyl-, (2R)-Piperazine, reference compound]
CD4-gp120 interaction
  IC50: 1.3 µM
wild-type HIV IIIB; Human immunodeficiency virus 1, IIIB, MT2, read-out: IC50, HIV-1 inhibition in MT-2 cell assay
  IC50: 0.32 µM
CHO-gp120 cells [2]
  fluorescence of ARM-H-recruited anti-DNP antibodies in the presence of competing ligand: considerably diminished

## Cc1cn([C@H]2C=C[C@@H](CO)O2)c(=O)[nH]c1=O [d4T]
wild-type HIV IIIB; live HIV-1, human MT-2 T-cell line, read-out: IC50, HIV-1 inhibition in MT-2 cell assay
  IC50: 4.2 µM

## O=[N+]([O-])c1ccc(S(=O)(=O)O)c([N+](=O)[O-])c1 [dinitrobenzenesulfonic acid, 2,4-dinitrobenzenesulfonic acid]
CHO-K1 cells
  cell death on labeling of CHO-K1 cells: Significant cell death

## C#CCOCCOCCOCCOCCNc1ccc([N+](=O)[O-])cc1[N+](=O)[O-] [Formula 2, N-(2,4-dinitrophenyl)-3,6,9,12-tetraoxapentadec-14-yn-1-amine]
CHO-gp120 cells [2]
  fluorescence of ARM-H-recruited anti-DNP antibodies in the presence of competing ligand: considerably diminished
